From US10576062B2, “Carbamoyloxymethyl triazole cyclohexyl acids as LPA antagonists” (Bristol-Myers Squibb Company, priority 2016, dated 2020)

target: T1, human LPA1 (Homo sapiens, UniProt Q92633); assay: LPA1 functional antagonist assay (LPA-induced calcium flux); format: cell-based; conditions: CHO cells overexpressing human LPA1; inhibition of calcium flux induced by 10 nM LPA; read-out: hLPA1 IC50
T1 construct: expressed in transfected cells; host or cells: Chinese hamster ovary (CHO) cells
T1 sequence (Q92633 whole entry): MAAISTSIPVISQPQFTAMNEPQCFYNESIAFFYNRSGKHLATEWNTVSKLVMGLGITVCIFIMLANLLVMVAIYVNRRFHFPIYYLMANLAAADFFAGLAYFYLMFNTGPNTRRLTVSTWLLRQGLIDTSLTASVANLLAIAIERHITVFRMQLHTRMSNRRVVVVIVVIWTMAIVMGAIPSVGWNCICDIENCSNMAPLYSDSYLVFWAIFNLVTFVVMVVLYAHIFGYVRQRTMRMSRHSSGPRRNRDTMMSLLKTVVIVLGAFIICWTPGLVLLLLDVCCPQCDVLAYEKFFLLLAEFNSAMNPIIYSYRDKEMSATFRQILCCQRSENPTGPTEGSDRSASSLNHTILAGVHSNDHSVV
Summary of the method: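 CHO cells overexpressing human LPA1, loaded with calcium dye 30 min at 37° C, were preincubated 20 min at room temperature with compound (0.08 nM–5 μM, 0.5% DMSO) in HBSS/20 mM HEPES/0.1% fatty acid-free BSA.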

SMILES | IC50 [nM]
Cc1nc(-c2nnn(C)c2COC(=O)N(C)CC2CCC2)ccc1O[C@H]1CCC[C@](F)(C(=O)O)C1 (single isomer, unassigned) [Example 13, 3-((6-(5-((((cyclobutylmethyl)(methyl)carbamoyl)oxy)methyl)-1-methyl-1H-1,2,3-triazol-4-yl)-2-methylpyridin-3-yl)oxy)-1-fluorocyclohexane-1-carboxylic Acid] | 95
Cc1nc(-c2nnn(C)c2CCOC(=O)NCC2CCC2)ccc1O[C@H]1CCC[C@H](C(=O)O)C1 [Example 248, (1S,3S)-3-((6-(5-(2-(((Cyclobutyl-methyl)carbamoyl)oxy)ethyl)-1-methyl-1H-1,2,3-triazol-4-yl)-2-methylpyridin-3-yl)oxy)cyclohexane-1-carboxylic acid] | 144
CCc1nc(-c2nnn(C)c2COC(=O)N2CC(C)(C)C2)ccc1O[C@H]1CCC[C@H](C(=O)O)C1 [Example 204, (1S,3S)-3-((6-(5-(((3,3-dimethylazetidine-1-carbonyl)oxy)methyl)-1-methyl-1H-1,2,3-triazol-4-yl)-2-ethylpyridin-3-yl)oxy)cyclohexane-1-carboxylic acid] | 102
CN(Cc1ccccc1)C(=O)OCc1c(-c2ccc(O[C@H]3CCC[C@H](C(=O)O)C3)c(C(F)F)n2)nnn1C [Example 282, (1S,3S)-3-((6-(5-(((benzyl(methyl)carbamoyl)oxy)methyl)-1-methyl-1H-1,2,3-triazol-4-yl)-2-(difluoromethyl)pyridin-3-yl)oxy)cyclohexane-1-carboxylic acid] | 19
Cc1nc(-c2nnn(C)c2CCOC(=O)N(C)C2CCC2)ccc1O[C@H]1CCC[C@H](C(=O)O)C1 [Example 247, (1S,3S)-3-((6-(5-(2-((Cyclobutyl(methyl)carbamoyl)oxy)ethyl)-1-methyl-1H-1,2,3-triazol-4-yl)-2-methylpyridin-3-yl)oxy)cyclo-hexane-1-carboxylic acid] | 41
Cc1nc(-c2nnn(C)c2CCCOC(=O)N(C)Cc2ccccc2)ccc1O[C@H]1CCC[C@H](C(=O)O)C1 [Example 249, (1S,3S)-3-((6-(5-(3-((Benzyl(methyl)carbamoyl)oxy)propyl)-1-methyl-1H-1,2,3-triazol-4-yl)-2-methylpyridin-3-yl)oxy)cyclohexane-1-carboxylic Acid] | 122
CN(CC1CCC1)C(=O)OCc1c(-c2ccc(O[C@H]3CCC[C@H](C(=O)O)C3)c(C(C)(C)O)n2)nnn1C [Example 271, (1S,3 S)-3-((6-(5-((((cyclobutylmethyl)(methyl)carbamoyl)oxy)methyl)-1-methyl-1H-1,2,3-triazol-4-yl)-2-(2-hydroxypropan-2-yl)pyridin-3-yl)oxy)cyclohexane-1-carboxylic Acid] | 225
CCc1nc(-c2nnn(C)c2COC(=O)N2CC3(CCC3)C2)ccc1O[C@H]1CCC[C@H](C(=O)O)C1 [Example 210, (1S,3S)-3-((6-(5-(((2-azaspiro[3.3]heptane-2-carbonyl)oxy)methyl)-1-methyl-1H-1,2,3-triazol-4-yl)-2-ethylpyridin-3-yl)oxy)cyclohexane-1-carboxylic acid] | 67

same assay, conditions: human LPA1; read-out: hLPA1 IC50

SMILES | IC50 [nM]
Cn1nnc(-c2ccc(O[C@H]3CCC[C@H](C(=O)O)C3)cn2)c1COC(=O)N1CCC2(CCC2)C1 [Example 175, (1S,3S)-3-((6-(5-(((6-azaspiro[3.4]octane-6-carbonyl)oxy)methyl)-1-methyl-1H-1,2,3-triazol-4-yl)pyridin-3-yl)oxy)cyclohexane-1-carboxylic acid] | 703
Cc1nc(-c2nnn(C)c2COC(=O)N2CCC3(CC2)CC3)ccc1O[C@H]1CCC[C@H](C(=O)O)C1 [Example 171, (1S,3S)-3-((6-(5-(((6-azaspiro[2.5]octane-6-carbonyl)oxy)methyl)-1-methyl-1H-1,2,3-triazol-4-yl)-2-methylpyridin-3-yl)oxy)cyclohexane-1-carboxylic acid] | 162

same assay, conditions: read-out: hLPA1 IC50

SMILES | IC50 [nM]
Cc1nc(-c2nnn(C)c2COC(=O)N2CCC(C)(C)C2)ccc1O[C@H]1CCC[C@H](C(=O)O)C1 [Example 140, (1S,3S)-3-((6-(5-(((3,3-dimethylpyrrolidine-1-carbonyl)oxy)methyl)-1-methyl-1H-1,2,3-triazol-4-yl)-2-methylpyridin-3-yl)oxy)cyclohexane-1-carboxylic acid] | 148
CN(Cc1ccccc1)C(=O)OCc1c(-c2ccc(O[C@H]3CCC[C@H](C(=O)O)C3)cc2)nnn1C (racemic) [Example 60, (rac)-trans-3-(4-(5-(((benzyl(methyl)carbamoyl)oxy)methyl)-1-methyl-1H-1,2,3-triazol-4-yl)phenoxy)cyclohexane-1-carboxylic acid] | 130
Cc1nc(-c2nnn(C)c2COC(=O)N(C)CCC(F)(F)F)ccc1O[C@H]1CCC[C@H](C(=O)O)C1 [Example 101, (1S,3S)-3-((2-methyl-6-(1-methyl-5-(((methyl(3,3,3-trifluoropropyl)carbamoyl)oxy)methyl)-1H-1,2,3-triazol-4-yl)pyridin-3-yl)oxy)cyclohexane-1-carboxylic acid] | 49
CCCC(C)N(C)C(=O)OCc1c(-c2ccc(O[C@H]3CCC[C@H](C(=O)O)C3)cc2)nnn1C (mixture of isomers) [Example 57, trans-3-(4-(1-methyl-5-(((methyl(pentan-2-yl)carbamoyl)oxy)methyl)-1H-1,2,3-triazol-4-yl)phenoxy)cyclohexane-1-carboxylic acid] | 142
Cc1nc(-c2nnn(C)c2COC(=O)N(C)C(C)C2CCC2)ccc1O[C@H]1CCC[C@H](C(=O)O)C1 (mixture of isomers) [Example 20, (1S,3S)-3-((6-(5-((((1-cyclobutylethyl)(methyl)carbamoyl)oxy)methyl)-1-methyl-1H-1,2,3-triazol-4-yl)-2-methylpyridin-3-yl)oxy)cyclohexane-1-carboxylic acid] | 28
CCCC(C)N(C)C(=O)OCc1c(-c2ccc(O[C@H]3CCC[C@H](C(=O)O)C3)c(C)n2)nnn1C (mixture of isomers) [Example 31, (1S,3S)-3-((2-methyl-6-(1-methyl-5-(((methyl(pentan-2-yl)carbamoyl)oxy)methyl)-1H-1,2,3-triazol-4-yl)pyridin-3-yl)oxy)cyclohexane-1-carboxylic acid] | 36
Cc1nc(-c2nnn(C)c2COC(=O)N(C)Cc2cnccn2)ccc1O[C@H]1CCC[C@H](C(=O)O)C1 [Example 123, (1S,3S)-3-((2-methyl-6-(1-methyl-5-(((methyl(pyrazin-2-ylmethyl)carbamoyl)oxy)methyl)-1H-1,2,3-triazol-4-yl)pyridin-3-yl)oxy)cyclohexane-1-carboxylic acid] | 618
Cc1nc(-c2nnn(C)c2COC(=O)N(C)C2CCCC2)ccc1O[C@H]1CCC[C@](F)(C(=O)O)C1 (racemic) [Example 88] | 32
CCC1(N(C)C(=O)OCc2c(-c3ccc(O[C@H]4CCC[C@H](C(=O)O)C4)c(C)n3)nnn2C)CCC1 [Example 133, (1S,3S)-3-((6-(5-((((1-ethylcyclobutyl)(methyl)carbamoyl)oxy)methyl)-1-methyl-1H-1,2,3-triazol-4-yl)-2-methylpyridin-3-yl)oxy)cyclohexane-1-carboxylic acid] | 174
Cc1nc(-c2nnn(C)c2COC(=O)N(C)Cc2ccccn2)ccc1O[C@H]1CCC[C@H](C(=O)O)C1 [Example 118, (1S,3S)-3-((2-methyl-6-(1-methyl-5-(((methyl(pyridin-2-ylmethyl)carbamoyl)oxy)methyl)-1H-1,2,3-triazol-4-yl)pyridin-3-yl)oxy)cyclohexane-1-carboxylic acid] | 211
CCCCCN(C)C(=O)OCc1c(-c2ccc(O[C@H]3CCC[C@H](C(=O)O)C3)cc2)nnn1C (racemic) [Example 58, (rac)-trans-3-(4-(1-methyl-5-(((methyl(pentyl)carbamoyl)oxy)methyl)-1H-1,2,3-triazol-4-yl)phenoxy)cyclohexane-1-carboxylic acid] | 250
CC(C1CCC1)N(C)C(=O)OCc1c(-c2ccc(O[C@H]3CCC[C@H](C(=O)O)C3)cc2)nnn1C (single isomer, unassigned) [Example 67, trans-3-(4-(5-((((1-cyclobutylethyl)(methyl)carbamoyl)oxy)methyl)-1-methyl-1H-1,2,3-triazol-4-yl)phenoxy)cyclohexane-1-carboxylic acid] | 109

tested on: CD-1 female mice; assay: LPA challenge with plasma histamine evaluation (acute in vivo histamine assay); parameters: species or system mouse; conditions: CD-1 mice, 3 mg/kg dose, p.o. 2 hours prior to LPA challenge
Description: LPA Challenge with Plasma Histamine Evaluation.
Compound is dosed orally p.o. 2 hours to CD-1 female mice prior to the LPA challenge. The mice are then dosed via tail vein (IV) with 0.15 mL of LPA in 0.1% BSA/PBS ([…]). Exactly 2 minutes following the LPA challenge, the mice are euthanized by decapitation and the trunk blood is collected. These samples are collectively centrifuged and individual 75 μL samples are frozen at −20° C. until the time of the histamine assay.
The plasma histamine analysis was run by standard EIA (Enzyme Immunoassay) methods. Plasma samples were thawed and diluted 1:30 in 0.1% BSA in PBS. The EIA protocol for histamine analysis as outlined by the manufacturer was followed (Histamine EIA, Oxford Biomedical Research, EA #31).
The LPA used in the assay is formulated as follows: LPA (1-oleoyl-2-hydroxy-sn-glycero-3-phosphate (sodium salt), 857130P, Avanti Polar Lipids) is prepared in 0.1% BSA/PBS for total concentration of 2 μg/μL. 13 mg of LPA is weighed and 6.5 mL 0.1% BSA added, vortexed and sonicated for ˜1 hour until a clear solution is achieved.

SMILES | histamine (change of plasma histamine after LPA challenge) [%]
Cc1nc(-c2nnn(C)c2COC(=O)N(C)C2CCCC2)ccc1O[C@H]1CCC[C@H](C(=O)O)C1 [Example 1, (1S,3S)-3-((6-(5-(((cyclopentyl(methyl)carbamoyl)oxy)methyl)-1-methyl-1H-1,2,3-triazol-4-yl)-2-methylpyridin-3-yl)oxy)cyclohexane-1-carboxylic Acid] | −97
CN(C(=O)OCc1c(-c2ccc(O[C@H]3CCC[C@H](C(=O)O)C3)cc2)nnn1C)C1CCCC1 [Example 5, (1S,3S)-3-(4-(5-(((Cyclopentyl(methyl)carbamoyl)oxy)methyl)-1-methyl-1H-1,2,3-triazol-4-yl)phenoxy)cyclohexanecarboxylic acid] | −90
